Experimental findings from US8691982B2, “Pyrazolo[1,5-a]-1,3,5-triazine derivatives, preparation thereof, and therapeutic use thereof” (Centre National de la Recherche Scientifique, priority 2009, dated 2014) are described below.

Each structure is given as a SMILES string. Where a name gives a salt, the structure may show the parent alone.

One test deals with CDK1/cyclin B. In words: CDK1/cyclin B kinase assay. The conditions noted are these: 15 μM ATP, 30° C., histone H1 substrate. In kind it is biochemical, starfish (Marthasterias glacialis). Here is the method: Homogenization buffers: 60 mM β-glycerophosphate, 15 mM p-nitrophenyl phosphate, 25 mM Mops (pH 7.2), 15 mM EGTA, 15 mM MgCl2, 1 mM DTT, 1 mM sodium vanadate, 1 mM NaF, 1 mM phenyl phosphate, 10 μg leupeptin/ml, 10 μg aprotinin/ml, 10 μg soybean trypsin inhibitor/ml and 100 μM benzamidine.
(§1) Buffer C: 60 mM β-glycerophosphate, 15 mM p-nitrophenyl phosphate, 25 mM Mops (pH 7.2), 5 mM EGTA, 15 mM MgCl2, 1 mM DTT, 1 mM sodium vanadate, 1 mM phenyl phosphate, 10 μg leupeptin/ml, 10 μg aprotinin/ml and 100 μM benzamidine.
(§2) Controls were performed with appropriate dilutions of dimethyl sulfoxide.
(§3) ATP (3000 Ci/mmol; 10 mCi/ml) in a final volume of 30 μl. After incubation for 30 minutes at 30° C., aliquotes of 25 μl of the supernatant were spotted onto Whatman P81 phosphocellulose paper filters and, 20 seconds later, the filters were washed five times (for at least five minutes each time) in a solution of 10 ml of phosphoric acid/liter of water. The wet filters were subjected to counting in the presence of an ACS scintillation fluid from Amersham. CDK2/cyclin A (human, recombinant, expressed in insect cells) was assayed as described for CDK1/cyclin B. CDK5/p25 was reconstituted by mixing equal amounts of recombinant mammalian CDK5 and p25 expressed in E. coli as a GST (glutathione-S-transferase) fusion protein and purified by affinity chromatography on glutathione-agarose (p25 is a truncated version of p35, the 35 kDa CDK5 activator). […] DYRK1A (human, recombinant, expressed in E. coli as a GST fusion protein) was purified on glutathione-agarose, assayed as described for CDK1/cyclin B with myelin basic protein (1 mg/ml) as substrate.

The target of a further test is T1, CDK2/cyclin A (Homo sapiens, UniProt P24941).
T1 construct: host or cells: insect cells
Kind of test: CDK2/cyclin A kinase assay. In kind it is biochemical. The conditions noted are these: 15 μM ATP, 30° C., histone H1 substrate. Here is the method: as §1, §2, §3

The target in another test is CDK5/p25 (Homo sapiens, UniProt Q00535). In words: CDK5/p25 kinase assay. In kind it is biochemical, mammalian. The conditions noted are these: 15 μM ATP, 30° C., histone H1 substrate. Here is the method:
as §1, §2, §3

For a further test, the target named is T2, CDK9/cyclin T (Homo sapiens, UniProt P50750).
T2 construct: host or cells: insect cells
T2 sequence (P50750 whole entry): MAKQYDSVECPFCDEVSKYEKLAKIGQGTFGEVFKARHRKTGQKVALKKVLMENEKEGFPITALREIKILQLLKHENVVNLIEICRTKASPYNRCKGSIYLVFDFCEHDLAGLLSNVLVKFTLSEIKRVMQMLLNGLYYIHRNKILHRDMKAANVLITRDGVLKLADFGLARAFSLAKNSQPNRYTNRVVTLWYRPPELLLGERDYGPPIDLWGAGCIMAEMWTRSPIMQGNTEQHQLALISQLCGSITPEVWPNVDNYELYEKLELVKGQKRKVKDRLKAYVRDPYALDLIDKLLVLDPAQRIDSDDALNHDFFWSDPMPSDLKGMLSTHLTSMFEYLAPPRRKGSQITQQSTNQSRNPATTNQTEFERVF
T2 sequence (O60563 whole entry partner): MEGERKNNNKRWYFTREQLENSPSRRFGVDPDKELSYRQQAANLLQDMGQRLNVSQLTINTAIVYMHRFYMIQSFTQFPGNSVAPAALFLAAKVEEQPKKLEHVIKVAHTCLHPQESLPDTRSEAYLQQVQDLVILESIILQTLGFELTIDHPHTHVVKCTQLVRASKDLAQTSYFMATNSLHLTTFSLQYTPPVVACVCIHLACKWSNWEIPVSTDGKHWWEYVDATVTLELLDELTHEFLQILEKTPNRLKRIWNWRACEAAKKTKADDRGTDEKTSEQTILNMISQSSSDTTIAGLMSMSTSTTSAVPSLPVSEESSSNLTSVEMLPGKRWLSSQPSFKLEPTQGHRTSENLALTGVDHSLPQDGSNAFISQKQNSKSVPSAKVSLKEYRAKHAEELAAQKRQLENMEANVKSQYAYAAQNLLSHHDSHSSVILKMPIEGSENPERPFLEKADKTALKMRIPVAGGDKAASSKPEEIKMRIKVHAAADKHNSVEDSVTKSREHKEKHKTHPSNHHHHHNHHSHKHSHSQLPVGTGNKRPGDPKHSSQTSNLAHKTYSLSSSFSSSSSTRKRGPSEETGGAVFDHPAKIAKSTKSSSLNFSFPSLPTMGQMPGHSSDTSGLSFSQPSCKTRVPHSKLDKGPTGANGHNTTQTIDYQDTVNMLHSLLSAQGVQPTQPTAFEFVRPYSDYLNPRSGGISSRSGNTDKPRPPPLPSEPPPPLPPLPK
In words: CDK9/cyclin T kinase assay. Type of test: biochemical. As to conditions: 15 μM ATP, 30° C., pRB fragment substrate.

The next test deals with GSK-3α/β. In words: GSK-3α/β kinase assay. In kind it is biochemical, pig. The conditions noted are these: 15 μM ATP, 30° C., buffer A, GS-1 substrate.
The target in the next test is CK1δ/ε. Kind of test: CK1δ/ε kinase assay. Type of test: biochemical, pig. As to conditions: 15 μM ATP, 30° C., CK1-specific peptide substrate. The protocol:
(§4) The blank values were subtracted and the activities calculated as μmoles of phosphate incorporated per 10 minutes of incubation. […] Controls were performed with appropriate dilutions of dimethyl sulfoxide.
as §3

For another test, the target named is DYRK1A (Homo sapiens, UniProt Q13627). In words: DYRK1A kinase assay. Type of test: biochemical. The conditions noted are these: 15 μM ATP, 30° C., myelin basic protein substrate. Here is the method: as §4, §3
In test [1] the test system is SH-SY5Y human neuroblastoma cells. Kind of test: SH-SY5Y cell viability (MTS reduction). Type of test: cell-based. As to conditions: SH-SY5Y cell line, cell viability by MTS. Here is the method: A Cell Titer 96® kit containing the MTS reagent was purchased from Promega (Madison, Wis., USA). The protease inhibitor cocktail came from Roche and the fetal calf serum (FCS) came from Invitrogen. The reagents not listed came from Sigma, unless otherwise indicated.
The SH-SY5Y human neuroblastoma cell line was grown in a DMEM medium with L-glutamine from Invitrogen (Cergy Pontoise, France), antibiotics and 10% by volume of FCS from Invitrogen. The general culture conditions were a 5% CO2 atmosphere and a temperature of 37° C. The culture plates and other disposable plastic tools were supplied by Corning (Corning, N.Y., USA). The treatments with the compounds of the invention were carried out on cultures in exponential growth over time, and indicated concentrations. The control experiments were carried out also using suitable dilutions of DMSO.
The cell viability was determined by measuring the reduction of 3-(4,5-dimethylthiazol-2-yl)-5-(3-carboxymethoxyphenyl)-2-(4-sulfophenyl)-2H-tetrazolium (MTS).

For test [2], the system named is Human chronic lymphoid leukemia (B-CLL) lymphocytes. In words: B-CLL cell apoptosis (annexin V / propidium iodide, flow cytometry). Type of test: cell-based. As to conditions: B-CLL cells from patients. Here is the method: The CLL cells were isolated from heparinized blood of untreated patients after informed consent.
The mononuclear cells were isolated by centrifugation on a Lymphosep density gradient (Biowest). […] When the percentage of CD19+/CD5+ cells was less than 90%, the B lymphocytes were enriched using the kit II for B-cell enrichment by immunomagnetic depletion of the monocytes, NK cells, granulocytes and T lymphocytes (Miltenyi Biotech).
After incubation, the B-CLL cells were harvested, washed in PBS and resuspended in 100 μl of 1× binding buffer containing FITC-conjugated annexin V and propidium iodide (Beckman Coulter Apoptosis Detection Kit). After incubation for 10 min on ice, the cells were analyzed by flow cytometry and the percentage of cells undergoing apoptosis was determined.

For another test, the system named is the four kinases assayed. In words: Tests on the four kinases assayed (comparison of enantiomers 34 and 31). In kind it is biochemical. The conditions noted are these: 34 versus 31. Here is the method: The kinases were assayed in buffer A or buffer C, at 30° C., at a final ATP concentration of 15 μM. The blank values were subtracted and the activities calculated as μmoles of phosphate incorporated per 10 minutes of incubation. The activities are usually expressed as % (percentage) of maximum activity, i.e. in the absence of inhibitors. Controls were performed with appropriate dilutions of dimethyl sulfoxide.
[…]. J. Biochem. 1997, 243, 527-536. The kinase activity was assayed in buffer C, with 1 mg of histone H1/ml, in the presence of 15 μM of [γ-^33P] ATP (3000 Ci/mmol; 10 mCi/ml) in a final volume of 30 μl. After incubation for 30 minutes at 30° C., aliquotes of 25 μl of the supernatant were spotted onto Whatman P81 phosphocellulose paper filters and, 20 seconds later, the filters were washed five times (for at least five minutes each time) in a solution of 10 ml of phosphoric acid/liter of water. The wet filters were subjected to counting in the presence of an ACS scintillation fluid from Amersham. […]

Chain of CDK5/p25 (Q00535 whole entry, species assumed): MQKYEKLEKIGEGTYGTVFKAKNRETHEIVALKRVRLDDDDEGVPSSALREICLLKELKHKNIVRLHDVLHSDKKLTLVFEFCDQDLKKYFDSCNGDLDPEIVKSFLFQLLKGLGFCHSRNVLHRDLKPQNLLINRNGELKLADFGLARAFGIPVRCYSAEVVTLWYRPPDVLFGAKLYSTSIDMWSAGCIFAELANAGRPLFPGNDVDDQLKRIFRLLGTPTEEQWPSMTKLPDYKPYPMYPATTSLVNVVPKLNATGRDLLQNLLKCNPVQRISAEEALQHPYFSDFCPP
Chain of CDK5/p25 (Q15078 99-307 partner limits assumed, species assumed): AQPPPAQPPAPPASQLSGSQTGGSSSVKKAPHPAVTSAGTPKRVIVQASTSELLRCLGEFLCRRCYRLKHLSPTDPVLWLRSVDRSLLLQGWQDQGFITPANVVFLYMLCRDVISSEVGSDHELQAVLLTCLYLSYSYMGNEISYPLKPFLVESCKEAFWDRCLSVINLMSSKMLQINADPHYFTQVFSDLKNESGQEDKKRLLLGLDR

Regarding `CC[C@H](CO)Nc1nc(NCc2ccc(-c3ccccc3)cc2)n2ncc(C(C)C)c2n1` [Compound 1, (R)-2-(1-hydroxybut-2-ylamino)-8-isopropyl-4-(4-phenylbenzylamino)pyrazolo[1,5-a]-1,3,5-triazine], the IC50 is 180 nM on CDK1/cyclin B; 220 nM against CDK2/cyclin A; 180 nM on CDK5/p25; 93 nM against CDK9/cyclin T; greater than 10000 nM against GSK-3α/β; 210 nM against CK1δ/ε. For the same molecule, the IC50 on DYRK1A amounted to 2200 nM; in test [1] (Homo sapiens) it was 430 nM; in test [2] (Homo sapiens), 189 nM.
With `CC[C@H](CO)Nc1nc(NCc2ccc(-c3ccccn3)cc2)n2ncc(C(C)C)c2n1` [Compound 2, (R)-2-(1-hydroxybut-2-ylamino)-8-isopropyl-4-[4-(pyridin-2-yl)benzylamino]pyrazolo[1,5-a]-1,3,5-triazine], the IC50 came to 23 nM against CDK1/cyclin B; 28 nM against CDK2/cyclin A; 40 nM at CDK5/p25; 73 nM on CDK9/cyclin T; 4000 nM at GSK-3α/β; 210 nM against CK1δ/ε. Also, the IC50 turned out to be 1800 nM against DYRK1A, 44 nM in test [1] (Homo sapiens) and 32 nM in [2] (Homo sapiens).
For the molecule `CC[C@H](CO)Nc1nc(NCc2ccc(-c3ccccn3)cc2)n2ncc(C(C)C)c2n1` [Compound 3, Fumarate salt of (R)-2-(1-hydroxybut-2-ylamino)-8-isopropyl-4-[4-(pyridin-2-yl)benzylamino]pyrazolo[1,5-a]-1,3,5-triazine], the IC50 against CDK1/cyclin B is 16 nM; against CDK2/cyclin A, 21 nM; at CDK5/p25, 18 nM; against CDK9/cyclin T it was 31 nM; on GSK-3α/β, 3100 nM; against CK1δ/ε it was 130 nM. For the same molecule, the results for the IC50 (at DYRK1A; in test [1]; in [2]) were 2200 nM, 59 nM and 32 nM, respectively.
Consider `CC[C@@H](CO)Nc1nc(NCc2ccc(-c3ccccn3)cc2)n2ncc(C(C)C)c2n1` [Compound 5, Fumarate salt of (S)-2-(1-hydroxybut-2-ylamino)-8-isopropyl-4-[4-(pyridin-2-yl)benzylamino]pyrazolo[1,5-a]-1,3,5-triazine], for which the IC50 stood at 23 nM on CDK1/cyclin B; 16 nM on CDK2/cyclin A; 31 nM at CDK5/p25; 30 nM at CDK9/cyclin T; 3500 nM against GSK-3α/β; 210 nM at CK1δ/ε. Moreover, the IC50 stood at 500 nM against DYRK1A and 80 nM in [1].
Turning to `CCc1cnn2c(NCc3ccc(-c4ccccn4)cc3)nc(NC[C@H](O)CO)nc12` [Compound 34, (S)-2-(1,2-dihydroxypropan-3-ylamino)-8-ethyl-4-[4-(pyridin-2-yl)benzylamino]pyrazolo[1,5-a]-1,3,5-triazine], the IC50 was 10 nM at CDK5/p25; 530 nM against GSK-3α/β; 100 nM against CK1δ/ε; 420 nM on DYRK1A; less than 30 nM in [1] (Homo sapiens). In the test on the four kinases assayed, the “activity compared with enantiomer on the four kinases assayed” value is reported as “more active than the derivative 31”.
On to `CC[C@H](CO)Nc1nc(NCc2ccccc2)n2ncc(C(C)C)c2n1` [N-&-N1, reference compound], for which the IC50 at CDK1/cyclin B came to 90 nM; on GSK-3α/β, 11000 nM; against CK1δ/ε, 1200 nM; against DYRK1A, 1300 nM; in test [1] (Homo sapiens), 2600 nM; in test [2] (Homo sapiens), 1420 nM.
